The test system of one assay is P388. Briefly: transplanted tumor in mice: P388. The format is in vivo. Conditions: every fourth day (three doses). The procedure:
(§1) The bases of this invention and their salts preparable by the processes disclosed herein are active also in vivo against some but not all transplanted tumors in mice.
(§2) The following table--Table 2--gives the results of this experiment in which mice bearing the transplanted tumor were treated with a compound of this invention. In the table, column 1 gives the name of the compound; column 2, the name of the tumor; column 3, the dosage given; and column 4, the percent inhibition of tumor growth (I) or prolongation of life (PL). The following dosage regimen was employed: every fourth day (three doses) starting on the first day after inoculation.

Assay [1] has as its system Chinese hamster ovary cells. Briefly: standard mitotic inhibition test employing Chinese hamster ovary cells. The format is cell-based. Conditions: dose 20-2 mcg/ml for accumulation in mitosis; CHO cells. An excerpt:
As previously stated, the compounds of this invention are antimitotics, and can adversely affect the growth of malignant cells. This activity is manifested in a standard mitotic inhibition test employing Chinese hamster ovary cells.
In the Table, column 1 gives the name of the compound, column 2 gives the dose in mcg/ml for accumulation in mitosis and column 3, the percent mitotic accumulation as a range.

A further assay has as its system P388/V. Briefly: transplanted tumor in mice: P388/V. Type of assay: in vivo. Conditions: every fourth day (three doses). The procedure:
as §1, §2

The values below come from patent US4362664A, “Vinblastine oxazolidinedione disulfides and related compounds” (priority 1980, dated 1982).

`CC[C@]1(O)C[C@H]2CN(CCc3c([nH]c4ccccc34)[C@@](C(=O)OC)(c3cc4c(cc3OC)N(C)[C@H]3[C@]5(OC(=O)N(CCS)C5=O)[C@H](O)[C@]5(CC)C=CCN6CC[C@]43[C@@H]65)C2)C1` [4-desacetyl vinblastine 3"-(β-thioethyl)-3-spiro-5"-oxazolidine-2",4"-dione]: the “Percent Prolongation of life (PL)” value in the assay on P388 (P388, 1.0 mg/kg) worked out at 52%; in the assay with P388 (P388, 1.2 mg/kg), 65%; in the assay with P388 (P388, 1.4 mg/kg), 77%.
In the case of `CC[C@]1(O)C[C@H]2CN(CCc3c([nH]c4ccccc34)[C@@](C(=O)OC)(c3cc4c(cc3OC)N(C)[C@H]3[C@]5(OC(=O)N(CCSSCCNC(=O)OC)C5=O)[C@H](OC(C)=O)[C@]5(CC)C=CCN6CC[C@]43[C@@H]65)C2)C1` [Example 1, Vinblastine 3"-(β-[β-(methoxycarbonylamino)ethyldithio]ethyl)-3-spiro-5"-oxazolidine-2",4"-dione], the “percent mitotic accumulation as a range” value in assay [1] was 7-10%. The “Percent Prolongation of life (PL)” value in the assay with P388/V (1.5 mg/kg) is on record as 30%; in the assay on P388/V (2.0 mg/kg, * = below 30, not statistically significant), 25%.
For the compound `CC[C@]1(O)C[C@H]2CN(CCc3c([nH]c4ccccc34)[C@@](C(=O)OC)(c3cc4c(cc3OC)N(C)[C@H]3[C@]5(OC(=O)N(CCS)C5=O)[C@H](OC(C)=O)[C@]5(CC)C=CCN6CC[C@]43[C@@H]65)C2)C1` [Example 2, Vinblastine 3"-(β-thioethyl)-3-spiro-5"-oxazolidine-2",4"-dione], the “percent mitotic accumulation as a range” value in assay [1] is recorded as 10-15%.
